Data: PMC7006908 (PLoS ONE, 2020)
Values joined by “and” are separate entries in the source; they are usually repeats but may differ in a detail not shown here. Equal entries are not always repeated. Where two headings read alike, the source gives them in different places.

Tests used:
[1] = Long term stability of working solutions in methanol at -20°C; type: physicochemical; details: for Acc. %, stored at -20ºC over 2 months (methanol): % of nominal
[2] = Stability of deproteinized QCs in autosampler at 4 °C; type: physicochemical; details: for Acc. %, T = 72 h in autosampler (4°C): % of nominal
Protocol: (§1) Stability tests were conducted using QCs prepared in triplicate at each concentration (L, M, H): bench-top stability was investigated after 4 h at room temperature; stability of the deproteinized QCs was evaluated in autosampler set at 4 °C re-analysing the samples 24, 48, and 72 h after the first injection; freeze/thaw stability was assessed by analysing three freshly prepared aliquots of each QCs concentration, and then again after one and two freeze/thaw cycles.

[3] = Bench-top stability in human plasma, 4 h at room temperature; type: in vitro ADME; details: for Acc. %, T = 4h (RT): % of nominal
Protocol: as §1

[4] = LC-MS/MS quantification of Cmin in plasma samples from breast cancer patients (clinical study CRO-2018-83); type: in vivo, human; details: for concentration at 15 h / concentration at 30 h: human, plasma, oral; for concentration at 15 h: patient 7, sample 9, PALBO 125 mg/day; for concentration at 30 h: patient 8, sample 10, RIBO 600 mg/day + LETRO 2.5 mg/day
Protocol: Preparation of calibration curve and QCs samples was conducted through the following steps: 1) 5 μL of working solutions were added to 95 μL of blank human plasma (dilution 1:20) and vortexed for 10 s; 2) a 10 μL-aliquot of this mix was added with 80 μL of cold IS working solution (see “Standard solutions preparation” section), vortexed and then centrifuged for 15 min at 16200 g and 4°C; 3) 70 μL of the supernatant were transferred to a polypropylene tube for the following analysis. […] The preparation of patients’ samples was conducted as following: patient plasma was thawed at room temperature, vortexed for 10 s and centrifuged, for 10 min, at 3000 g and 4°C; 10 μL of plasma was then treated according to steps 2) and 3).
The HPLC system was a SIL-20AC XR auto-sampler and LC-20AD UFLC XR pumps (Shimadzu, Tokyo, Japan). The mobile phases (MP) consisted of ultrapure water with 0.1% HCOOH (phase A) and methanol/isopropanol (9:1, v/v) with 0.1% HCOOH (phase B). The chromatographic separation was obtained on the Luna Omega Polar C18 column ([…], 100 Å, 50 x 2.1 mm) coupled with a Security Guard Cartridge (Polar, C18, 4 x 2.0 mm), both provided by Phenomenex (Castel Maggiore (BO), Italy). The mass spectrometry system used for the detection was an API 4000 triple quadrupole (AB SCIEX, Massachusetts, USA) with a TurboIonSpray source operating in positive ion mode. To optimize source and compound dependent parameters, solutions of each analyte at the concentration of 100 ng/mL were used with a flow rate of 20 μL/min. Data were processed with Analyst 1.6.3 and the quantification of the peaks was done with MultiQuant 2.1 (software package AB SCIEX).
The exclusion criteria were to be non-collaborative and/or unreliable patients and refusal of informed consent. Patients were asked to periodically (every two months) collect plasma samples for the estimation of PALBO or RIBO and/or LETRO Cmin during their therapy treatment.
Plasma was obtained immediately by centrifugation of the blood samples at 3000 g for 10 min at 4°C. Then the obtained plasma was split into two independent aliquots and stored at -80°C in two different freezers.
At present, each of the 10 patients’ samples collected were quantified in 2 separate runs during 2 different working days, to further assess the reproducibility of the proposed method. In fact, as recently introduced in the last version of the FDA guideline, incurred samples re-analysis (ISR) is necessary to show the reliability of the reported analyte concentrations obtained with a bioanalytical method. ISR is conducted by repeating the analysis of a subset of patients’ samples in separate runs. The two analyses can be considered equivalent if the percentage difference [expressed as: (repeat-original)*100/mean] between the first and the second concentration measured is within ±20% for at least 67% of the samples [23, 24].

[5] = Long term stability in human plasma at -80°C; type: in vitro ADME; details: for Acc. %, stored at -80ºC over 2 months (plasma): % of nominal
[6] = parameters: method as in PMID 29862467; details: exposure-efficacy analysis in patients; cited from earlier work
[7] = cited from earlier work
[8] = QC high: nominal 200.00 PALBO / 8000.00 RIBO / 400.00 LETRO ng/mL
[9] = QC low: nominal 0.50 PALBO / 20.00 RIBO / 1.00 LETRO ng/mL
[10] = QC medium: nominal 20.00 PALBO / 800.00 RIBO / 40.00 LETRO ng/mL
[11] = deproteinized QC high: nominal 200.00 PALBO / 8000.00 RIBO / 400.00 LETRO ng/mL
[12] = deproteinized QC low: nominal 0.50 PALBO / 20.00 RIBO / 1.00 LETRO ng/mL
[13] = deproteinized QC medium: nominal 20.00 PALBO / 800.00 RIBO / 40.00 LETRO ng/mL
[14] = plasma QC high: nominal 200.00 PALBO / 8000.00 RIBO / 400.00 LETRO ng/mL
[15] = plasma QC low: nominal 0.50 PALBO / 20.00 RIBO / 1.00 LETRO ng/mL
[16] = plasma QC medium: nominal 20.00 PALBO / 800.00 RIBO / 40.00 LETRO ng/mL

Mean ± SD measured concentration, stored at -20ºC over 2 months (methanol) [1, 8]: 413.47 ± 6.07 ng/mL
Acc. %, stored at -20ºC over 2 months (methanol) [1, 8]: 103.4%
Mean ± SD measured concentration, stored at -20ºC over 2 months (methanol) [1, 9]: 1.05 ± 0.03 ng/mL
Acc. %, stored at -20ºC over 2 months (methanol) [1, 9]: 105.1%
Mean ± SD measured concentration, stored at -20ºC over 2 months (methanol) [1, 10]: 44.12 ± 1.25 ng/mL
Acc. %, stored at -20ºC over 2 months (methanol) [1, 10]: 110.3%
Mean ± SD measured concentration, T = 72 h in autosampler (4°C) [2, 11]: 426.23 ± 4.43 ng/mL
Acc. %, T = 72 h in autosampler (4°C) [2, 11]: 106.6%
Mean ± SD measured concentration, T = 72 h in autosampler (4°C) [2, 12]: 0.94 ± 0.07 ng/mL
Acc. %, T = 72 h in autosampler (4°C) [2, 12]: 93.9%
Mean ± SD measured concentration, T = 72 h in autosampler (4°C) [2, 13]: 44.45 ± 0.19 ng/mL
Acc. %, T = 72 h in autosampler (4°C) [2, 13]: 111.1%
Mean ± SD measured concentration, T = 4h (RT) [3, 14]: 372.54 ± 24.58 ng/mL
Acc. %, T = 4h (RT) [3, 14]: 93.1%
Mean ± SD measured concentration, T = 4h (RT) [3, 15]: 0.88 ± 0.06 ng/mL
Acc. %, T = 4h (RT) [3, 15]: 88.2%
Mean ± SD measured concentration, T = 4h (RT) [3, 16]: 37.95 ± 1.78 ng/mL
Acc. %, T = 4h (RT) [3, 16]: 94.9%
concentration at 15 h ([4]; LETRO 2.5 mg/day, last pill intake 15 h before sampling, read-out: I quantif. plasma concentration (Cmin)): 2.8 ng/mL
concentration at 15 h ([4]; LETRO 2.5 mg/day, reanalysis in second run, read-out: II quantif. plasma concentration (Cmin)): 2.9 ng/mL
concentration at 30 h ([4]; 30 h from last pills intake, read-out: I quantif. plasma concentration (Cmin)): 46.8 ng/mL
concentration at 30 h ([4]; reanalysis in second run, read-out: II quantif. plasma concentration (Cmin)): 46.9 ng/mL
II quantif. plasma concentration (Cmin) ([4]; patient 6, sample 8, PALBO 125 mg/day, LETRO 2.5 mg/day, reanalysis in second run): 67.8 ng/mL
Mean ± SD measured concentration, stored at -80ºC over 2 months (plasma) [5, 8]: 386.66 ± 6.61 ng/mL
Acc. %, stored at -80ºC over 2 months (plasma) [5, 8]: 96.7%
Mean ± SD measured concentration, stored at -80ºC over 2 months (plasma) [5, 9]: 0.88 ± 0.01 ng/mL
Acc. %, stored at -80ºC over 2 months (plasma) [5, 9]: 88.3%
Mean ± SD measured concentration, stored at -80ºC over 2 months (plasma) [5, 10]: 39.58 ± 0.90 ng/mL
Acc. %, stored at -80ºC over 2 months (plasma) [5, 10]: 99.0%
Structure (SMILES): N#Cc1ccc(C(c2ccc(C#N)cc2)n2cncn2)cc1 [LETRO, letrozole]
LETRO plasma concentration associated with longer time to tumour progression [6]: ≥ 85.6 ng/mL
LETRO mean plasma concentration (±SD) ([7]; ref 11 (Beer et al.)): 107.0 ng/mL and 107.0 ± 62.9 ng/mL
LETRO mean plasma concentration (range) ([7]; ref 22 (Desta et al.)): 89.7 (28.4–349.2) ng/mL
